Read-outs that look alike come from different tables or passages of the source.
Legend:
P. falciparum 3D7 [1] = tested on: P. falciparum 3D7; parameters: method as in ChEMBL-NTD; settings: ref ChEMBL-NTD, cited from earlier work
P. falciparum 3D7 [2] = experiment: DAPI stain fluorescent high content imaging assay, P. falciparum 3D7 (confirmatory screen, Avery); settings: for EC50 / inhibition of growth at 5 µM / inhibition of growth at 2 µM: Plasmodium falciparum; for EC50: 3D7, read-out: EC50_nM; for inhibition of growth at 5 µM: 3D7, read-out: percent_inh @ 5 uM; for inhibition of growth at 2 µM: 3D7, read-out: percent_inh @ 2 uM
[3] = values follow the order of the source (GNF; GSK; StJude)
[4] = original screening data, source (GSK, GNF, StJude), several values separated by ';' in order of sources

## OC(CNC1CCCCC1)Cn1c2ccccc2c2ccccc21 (centres unmarked) [MMV009063]
P. falciparum 3D7 [1]; source GNF (GNF-Pf id)
  EC50: 483 nM
P. falciparum 3D7 [1]; source GSK (TCMDC id)
  EC50: 991 nM
P. falciparum 3D7 [2]
  EC50: 293 nM
  inhibition of growth at 5 µM: 93%

## O=C1c2ccc3c4c(ccc(c24)C(=O)N1CCCCO)C(=O)N(CCCCO)C3=O [MMV009085]
P. falciparum 3D7 [1]; [3]
  EC50: 354 nM
P. falciparum 3D7 [2]
  EC50: 795 nM
  inhibition of growth at 5 µM: 97%

## CCN(CC)S(=O)(=O)c1ccc(-c2csc(Nc3ccc(C)c(C)c3)n2)cc1 [MMV009108]
P. falciparum 3D7 [1]; [4]
  EC50: 2100 nM
P. falciparum 3D7 [2]
  EC50: 641 nM
  inhibition of growth at 5 µM: 97%

## CC1CCN(Cc2c(O)ccc3cc(-c4nc5ccccc5s4)c(=O)oc23)CC1 [MMV009127]
P. falciparum 3D7 [1]; source GNF (GNF-Pf ids)
  EC50: 12500 nM
P. falciparum 3D7 [2]
  EC50: 1130 nM
  inhibition of growth at 5 µM: 91%

## Cc1cc(Nc2ccc3ccccc3c2)n2ncnc2n1 [MMV011099]
P. falciparum 3D7 [1]; source GSK (TCMDC id)
  EC50: 173 nM
P. falciparum 3D7 [2]
  EC50: 242 nM

## Cc1cc(Nc2ccc(Cl)cc2)n2nc(C(F)(F)F)nc2n1 [MMV011256]
P. falciparum 3D7 [1]; source GSK (TCMDC id)
  EC50: 117 nM
P. falciparum 3D7 [2]
  EC50: 212 nM

## CC(C)(C)c1ccc(C2CC3=Nc4ccccc4N(C(=O)c4ccccc4Cl)C(c4ccc(F)cc4)C3=C(O)C2)cc1 (centres unmarked) [MMV011436]
P. falciparum 3D7 [1]; [3]
  EC50: 2630 nM
P. falciparum 3D7 [2]
  EC50: 946 nM
  inhibition of growth at 5 µM: 96%

## COC(=O)c1ccc(C2C3=C(O)CC(c4ccc(F)cc4)CC3=Nc3ccccc3N2C(=O)c2ccccc2)cc1 (centres unmarked) [MMV011438]
P. falciparum 3D7 [1]; [3]
  EC50: 332 nM
P. falciparum 3D7 [2]
  EC50: 326 nM
  inhibition of growth at 5 µM: 98%

## COc1ccc(C(=O)Nc2nonc2-c2ccc(OC)c(OC)c2)cc1Cl [MMV011567]
P. falciparum 3D7 [1]; source GNF
  EC50: 1780 nM
P. falciparum 3D7 [1]; source GSK
  EC50: 675 nM
P. falciparum 3D7 [2]
  EC50: 516 nM
  inhibition of growth at 5 µM: 92%

## CCOC(=O)C1CCN(C(=O)CN2C(=O)c3ccccc3C2c2c[nH]c3ccccc23)CC1 (centres unmarked) [MMV011576]
P. falciparum 3D7 [1]; [4]
  EC50: 519 nM
P. falciparum 3D7 [2]
  EC50: 1180 nM
  inhibition of growth at 5 µM: 98%

## Oc1ccc2ccccc2c1CNc1nc2ccccc2[nH]1 [MMV011832]
P. falciparum 3D7 [1]; [3]
  EC50: 652 nM
P. falciparum 3D7 [2]
  EC50: 646 nM
  inhibition of growth at 5 µM: 83%

## Nc1ccc(-c2nc3cc(Oc4ccc(Oc5ccc6[nH]c(-c7ccc(N)cc7)nc6c5)cc4)ccc3[nH]2)cc1 [MMV011895]
P. falciparum 3D7 [1]; source GNF
  EC50: 288 nM
P. falciparum 3D7 [2]
  EC50: 842 nM
  inhibition of growth at 5 µM: 97%

## COc1cccc(Nc2nc(NCCO)c3ccccc3n2)c1 [MMV011944]
P. falciparum 3D7 [1]; source GNF
  EC50: 115 nM
P. falciparum 3D7 [1]; source GSK
  EC50: 151 nM
P. falciparum 3D7 [2]
  EC50: 854 nM

## Cc1cc(NC(=O)c2ccc(-c3ccccc3)cc2)no1 [MMV018984]
P. falciparum 3D7 [1]; [4]
  EC50: 1020 nM
P. falciparum 3D7 [2]
  EC50: 693 nM
  inhibition of growth at 5 µM: 95%

## COCCNCC(O)Cn1c2ccc(Cl)cc2c2cc(Cl)ccc21 (centres unmarked) [MMV019017]
P. falciparum 3D7 [1]; [4]
  EC50: 52 nM
P. falciparum 3D7 [2]
  EC50: 1010 nM

## COc1cccc(-c2nn(C)c3sc(C(=O)NCCN4CCN(c5ccccc5F)CC4)cc23)c1 [MMV019064]
P. falciparum 3D7 [1]; source GSK
  EC50: 955 nM
P. falciparum 3D7 [2]
  EC50: 1300 nM
  inhibition of growth at 5 µM: 91%

## COc1ccccc1CNC(=O)CCn1c(=O)[nH]c2ccsc2c1=O [MMV019066]
P. falciparum 3D7 [1]; source GSK (TCMDC id)
  EC50: 1040 nM
P. falciparum 3D7 [2]
  EC50: 140 nM
  inhibition of growth at 5 µM: 67%

## CCN1CCN(c2cc(C)c3cc(NC(=O)c4ccc(OC)c(OC)c4)ccc3n2)CC1 [MMV019074]
P. falciparum 3D7 [1]; source GSK
  EC50: 1030 nM
P. falciparum 3D7 [2]
  inhibition of growth at 5 µM: 99%

## Cc1cccc(Nc2nc(N)c3ccccc3n2)c1 [MMV019110]
P. falciparum 3D7 [1]; source GSK (TCMDC id)
  EC50: 574 nM
P. falciparum 3D7 [2]
  EC50: 400 nM
  inhibition of growth at 2 µM: 97%

## CCN(Cc1ccccc1)C1CCN(Cc2cc(Br)ccc2O)CC1 [MMV019127]
P. falciparum 3D7 [1]; [4]
  EC50: 823 nM
P. falciparum 3D7 [2]
  EC50: 625 nM
  inhibition of growth at 5 µM: 97%

## COc1cccc(Nc2nc(N)c3ccccc3n2)c1 [MMV019199]
P. falciparum 3D7 [1]; [3]
  EC50: 934 nM
P. falciparum 3D7 [2]
  EC50: 4000 nM
  inhibition of growth at 2 µM: 94%

## CCOc1cccc(C(=O)Nc2ccc(-c3nc4ccccc4[nH]3)cc2)c1 [MMV019202]
P. falciparum 3D7 [1]; [4]
  EC50: 1010 nM
P. falciparum 3D7 [2]; 2.5 uM (Comment column; solubility issue at 5 uM)
  % inh. At 2.5 uM: 97%

## O=C(Nc1ccc(-c2nc3cc4ccccc4cc3[nH]2)cc1)c1cccc(Br)c1 [MMV019241]
P. falciparum 3D7 [1]; source GSK (TCMDC ids)
  EC50: 363 nM
P. falciparum 3D7 [2]
  EC50: 450 nM
  inhibition of growth at 5 µM: 93%

## COc1ccc(-n2ccnc2SCC(=O)Nc2cc(C)ccc2C)c(OC)c1 [MMV019258]
P. falciparum 3D7 [1]; source GSK (TCMDC id)
  EC50: 205 nM
P. falciparum 3D7 [2]
  EC50: 170 nM
  inhibition of growth at 5 µM: 95%

## Cc1sc2ncnc(Sc3nc4ccccc4[nH]3)c2c1C [MMV019266]
P. falciparum 3D7 [1]; [4]
  EC50: 255 nM
P. falciparum 3D7 [2]
  EC50: 614 nM
  inhibition of growth at 5 µM: 100%

## Cn1c(=O)c2cc(C(=O)NCCCN3CCCCCC3)sc2c2ccccc21 [MMV019313]
P. falciparum 3D7 [1]; source GSK
  EC50: 689 nM
P. falciparum 3D7 [2]
  EC50: 669 nM
  inhibition of growth at 5 µM: 97%

## CCC1(C)CC(CCNCc2ccccc2O)(c2ccc(C)cc2)CCO1 (centres unmarked) [MMV019406]
P. falciparum 3D7 [1]; source GSK (TCMDC id)
  EC50: 38.8 nM
P. falciparum 3D7 [2]
  EC50: 142 nM
  inhibition of growth at 5 µM: 97%

## c1ccc2c(NCCCCCCNc3c4c(nc5ccccc35)CCCC4)c3c(nc2c1)CCCC3 [MMV019555]
P. falciparum 3D7 [1]; source GSK (TCMDC ids)
  EC50: 196 nM
P. falciparum 3D7 [2]
  EC50: 376 nM
  inhibition of growth at 5 µM: 100%

## COc1ccc(N2CCN(C(CNC(=O)C3CCCCC3)c3ccc4c(c3)OCO4)CC2)cc1 (centres unmarked) [MMV019662]
P. falciparum 3D7 [1]; source GSK
  EC50: 566 nM
P. falciparum 3D7 [2]
  EC50: 1110 nM
  inhibition of growth at 5 µM: 97%

## O=C(Nc1ccc(N2CCN(Cc3ccccc3)CC2)cc1)c1cccs1 [MMV019670]
P. falciparum 3D7 [1]; [4]
  EC50: 769 nM
P. falciparum 3D7 [2]
  EC50: 1080 nM
  inhibition of growth at 5 µM: 59%

## COc1ccc(C2NCCc3c2[nH]c2ccccc32)cc1CN1CCN(c2ccc(F)cc2)CC1 (centres unmarked) [MMV019690]
P. falciparum 3D7 [1]; source GSK (TCMDC ids)
  EC50: 776 nM
P. falciparum 3D7 [2]
  EC50: 934 nM
  inhibition of growth at 5 µM: 97%

## O=C(Nc1ccc(N2CCCCC2)c(Cl)c1)c1ccc(Br)o1 [MMV019700]
P. falciparum 3D7 [1]; [4]
  EC50: 549 nM
P. falciparum 3D7 [2]
  EC50: 735 nM
  inhibition of growth at 5 µM: 96%

## Cc1[nH]c(-c2ccc(F)cc2)cc1C(=O)NC1CCN(Cc2ccccc2)CC1 [MMV019738]
P. falciparum 3D7 [1]; source GSK
  EC50: 1130 nM
P. falciparum 3D7 [2]
  EC50: 771 nM
  inhibition of growth at 5 µM: 99%

## Cc1ccc(C)c(Cn2c(N3CCC(C(=O)NCc4cccs4)CC3)nc3ccccc32)c1 [MMV019741]
P. falciparum 3D7 [1]; source GSK (TCMDC ids)
  EC50: 938 nM
P. falciparum 3D7 [2]
  EC50: 1330 nM
  inhibition of growth at 5 µM: 97%

## Cc1ccc(Cl)cc1N1CCN(CCCNC(=O)C2CCN(c3nc4ccccc4[nH]3)CC2)CC1 [MMV019746]
P. falciparum 3D7 [1]; source GSK
  EC50: 895 nM
P. falciparum 3D7 [2]
  EC50: 1330 nM
  inhibition of growth at 5 µM: 97%

## COc1ccc(C(=O)Nc2ccc3nc(N4CCCCC4)cc(C)c3c2)cc1OC [MMV019758]
P. falciparum 3D7 [1]; source GSK
  EC50: 994 nM
P. falciparum 3D7 [2]
  inhibition of growth at 5 µM: 76%

## COc1cccc(C(=O)Nc2ccc(-c3nc4ccccc4[nH]3)cc2)c1 [MMV019762]
P. falciparum 3D7 [1]; [4]
  EC50: 802 nM
P. falciparum 3D7 [2]
  inhibition of growth at 5 µM: 83%

## Cc1cc(C)c2nc(N3CCC(C(=O)NCCCN4CCC(N5CCCCC5)CC4)CC3)sc2c1 [MMV019780]
P. falciparum 3D7 [1]; source GSK
  EC50: 838 nM
P. falciparum 3D7 [2]
  EC50: 697 nM
  inhibition of growth at 5 µM: 98%

## Fc1ccc2[nH]c3c(NCCCN4CCOCC4)ncnc3c2c1 [MMV019871]
P. falciparum 3D7 [1]; source GSK (TCMDC id)
  EC50: 714 nM
P. falciparum 3D7 [2]
  EC50: 345 nM
  inhibition of growth at 5 µM: 98%

## O=C(NC1CCN(Cc2ccccc2)CC1)c1cc(C(=O)NC2CCN(Cc3ccccc3)CC2)cc(C(=O)NC2CCN(Cc3ccccc3)CC2)c1 [MMV019881]
P. falciparum 3D7 [1]; [3]
  EC50: 1040 nM
P. falciparum 3D7 [2]
  EC50: 646 nM
  inhibition of growth at 5 µM: 98%

## Clc1cc(Br)ccc1-c1ccc(CNCC2CCNCC2)o1 [MMV019918]
P. falciparum 3D7 [1]; [4]
  EC50: 1510 nM
P. falciparum 3D7 [2]
  EC50: 800 nM
  inhibition of growth at 5 µM: 96%

## O=C(NCCCN1CCC(N2CCCCC2)CC1)C1=Cc2cc(Br)ccc2OC1 [MMV019995]
P. falciparum 3D7 [1]; source GSK (TCMDC ids)
  EC50: 853 nM
P. falciparum 3D7 [2]
  EC50: 563 nM
  inhibition of growth at 5 µM: 99%

## Cc1cc(N(C)C)nc(Nc2ccc(NC(=O)Nc3ccccc3)cc2)n1 [MMV020243]
P. falciparum 3D7 [1]; [3]
  EC50: 134 nM
P. falciparum 3D7 [2]
  EC50: 1150 nM

## O=C(NC1CCN(Cc2ccccc2)CC1)c1cc(-c2ccncc2)nc2ccc(Cl)cc12 [MMV020275]
P. falciparum 3D7 [1]; [4]
  EC50: 920 nM
P. falciparum 3D7 [2]
  EC50: 1020 nM
  inhibition of growth at 5 µM: 92%

## COc1ccc(-c2cn3c(C(=O)Nc4ccccc4Cl)c(-c4ccccc4)c4c3n2CCCC4)cc1 [MMV020403]
P. falciparum 3D7 [1]; [3]
  EC50: 792 nM
P. falciparum 3D7 [2]
  inhibition of growth at 5 µM: 80%

## CCn1c(CN2CCN(Cc3ccccc3)CC2)nc2cc(NC(=O)c3cccs3)ccc21 [MMV020439]
P. falciparum 3D7 [1]; source GSK (TCMDC id)
  EC50: 402 nM
P. falciparum 3D7 [2]
  EC50: 512 nM
  inhibition of growth at 5 µM: 97%

— paper PMC3684613 (PLoS ONE, 2013)
